Test results from patent publication US11161839B2, “2-quinolone derived inhibitors of BCL6” (Cancer Research Technology Limited, priority 2017, dated 2021).
Where two headings read alike, the source gives them in different places.

Legend:
[1] = target: BCL6-NCOR2(SMRT) corepressor protein-protein interaction (Homo sapiens (Human), UniProt P41182); assay: NanoBRET cell assay in transfected HEK293T cells; assay type: cell-based
[2] = target: human BCL6 BTB domain (Trx-6xHis-BCL6) (Homo sapiens (Human), UniProt P41182); assay: HTRF in vitro assay (BCL6 BTB domain / BCOR-AF633 peptide); assay type: binding; settings: for IC50: read-out: HTRF pIC50 (converted)
Protocol: The % inhibition at each concentration was calculated by normalising FRET ratio to the appropriate high (DMSO with all reagents) and low (DMSO without BCL6) controls.

[3] = further generated data (Table 2b), HEK293T cells, 6 hr, read-out: NanoBRET cell pIC50 (converted)
[4] = further generated data (Table 1b), 1 nM Trx-6xHis-BCL6, 0.5 nM anti-6xHis-Terbium cryptate

Structure (SMILES)	IC50 [1, 3] [nM]	HTRF pIC50 [2, 4]	HTRF pIC50 ([2]; initially generated data (Table 1a), 10 nM Trx-6xHis-BCL6, 1 nM anti-6xHis-Terbium cryptate)	IC50 [2, 4] [nM]	IC50 [1] [nM]
CC(Nc1cc(=O)n(C)c2ccc(Nc3ccnc(Cl)c3Cl)cc12)c1ncccn1 (centres unmarked) [Example 6a, 6-[(2,3-Dichloro-4-pyridyl)amino]-1-methyl-4-(1-pyrimidin-2-ylethylamino)quinolin-2-one]	2820	6.56	6.36	–	–
CC(Nc1nc(=O)n(C)c2ccc(Nc3ccnc(Cl)c3Cl)cc12)c1ncccn1 (centres unmarked) [Example 6c, 6-((2,3-dichloropyridin-4-yl)amino)-1-methyl-4-((1-(pyrimidin-2-yl)ethyl)amino)quinazolin-2(1H)-one]	5500	6.57	–	–	–
C[C@@H](Nc1nc(=O)n(C)c2ccc(Nc3ccnc(Cl)c3Cl)cc12)C1CC1 [Example 6d, (R)-4-((1-cyclopropylethyl)amino)-6-((2,3-dichloropyridin-4-yl)amino)-1-methylquinazolin-2(1H)-one]	1820	6.09	–	–	–
CC(Nc1cc(=O)n(CC2CC2)c2ccc(Nc3ccnc(Cl)c3Cl)cc12)c1ncccn1 (centres unmarked) [Example 6g, 1-(cyclopropylmethyl)-6-[(2,3-dichloro-4-pyridyl)amino]-4-(1-pyrimidin-2-ylethylamino)quinolin-2-one]	7410	6.25	–	–	–
Cn1c(=O)cc(NC(C)(C)c2ncc(C3CC3)cn2)c2cc(Nc3ccnc(Cl)c3Cl)ccc21 [Example 6j, 4-((2-(5-cyclopropylpyrimidin-2-yl)propan-2-yl)amino)-6-((2,3-dichloropyridin-4-yl)amino)-1-methylquinolin-2(1H)-one]	1200	6.84	–	–	–
C[C@@H]1CN(c2cnc(C(C)(C)Nc3cc(=O)n(C)c4ccc(Nc5ccnc(Cl)c5C#N)cc34)nc2)C[C@H](C)O1 [Example 7a, 2-Chloro-4-((4-((2-(5-((2R,6S)-2,6-dimethylmorpholino)pyrimidin-2-yl)propan-2-yl)amino)-1-methyl-2-oxo-1,2-dihydroquinolin-6-yl)amino)nicotinonitrile]	347	7.91	–	–	–
CNC(=O)c1cc(Nc2ccc3c(c2)c(NC(C)C2CC2)cc(=O)n3C)c(C#N)c(Cl)n1 (centres unmarked) [Example 7b, 6-chloro-5-cyano-4-((4-((1-cyclopropylethyl)amino)-1-methyl-2-oxo-1,2-dihydroquinolin-6-yl)amino)-N-methylpicolinamide]	1120	–	–	288	–
CNC(=O)c1cc(Nc2ccc3c(c2)c(NC(C)(C)COC)cc(=O)n3C)c(C#N)c(Cl)n1 [Example 7d, 6-chloro-5-cyano-4-[[4-[(2-methoxy-1,1-dimethyl-ethyl)amino]-1-methyl-2-oxo-6-quinolyl]amino]-N-methyl-pyridine-2-carboxamide]	977	6.85	–	–	–
Cn1c(=O)cc(NC(C)(C)c2ncccn2)c2cc(Nc3cc(C(=O)N4CCC4)nc(Cl)c3C#N)ccc21 [Example 8a, 6-(Azetidine-1-carbonyl)-2-chloro-4-((1-methyl-2-oxo-4-((2-(pyrimidin-2-yl)propan-2-yl)amino)-1,2-dihydroquinolin-6-yl)amino)nicotinonitrile]	550	7.78	–	–	–
Cn1c(=O)cc(NC(C)(C)c2ncc(C3CC3)cn2)c2cc(Nc3cc(C(=O)N4CCC4)nc(Cl)c3C#N)ccc21 [Example 8b, 6-(azetidine-1-carbonyl)-2-chloro-4-((4-((2-(5-cyclopropylpyrimidin-2-yl)propan-2-yl)amino)-1-methyl-2-oxo-1,2-dihydroquinolin-6-yl)amino)nicotinonitrile]	741	7.86	–	–	–
C[C@@H](Nc1cc(=O)n(C)c2ccc(Nc3cc(C(=O)N4CCC4)nc(Cl)c3C#N)cc12)C1CC1 [Example 8c, (R)-6-(azetidine-1-carbonyl)-2-chloro-4-((4-((1-cyclopropylethyl)amino)-1-methyl-2-oxo-1,2-dihydroquinolin-6-yl)amino)nicotinonitrile]	501	7.02	–	–	–
COC[C@@H]1CCCN1C(=O)c1cc(Nc2ccc3c(c2)c(NC(C)(C)c2ncccn2)cc(=O)n3C)c(C#N)c(Cl)n1 [Example 8e]	676	–	–	28.2	–
CC(Nc1cc(=O)n(C)c2ccc(Nc3cc(C(=O)N4CC(C(F)(F)F)C4)nc(Cl)c3C#N)cc12)c1ncc(C2CC2)cn1 (centres unmarked) [Example 8f, 2-chloro-4-((4-((1-(5-cyclopropylpyrimidin-2-yl)ethyl)amino)-1-methyl-2-oxo-1,2-dihydroquinolin-6-yl)amino)-6-(3-(trifluoromethyl)azetidine-1-carbonyl)nicotinonitrile]	5250	6.99	–	–	–
Cn1c(=O)cc(NC(C)(C)c2ncc(C3CC3)cn2)c2cc(Nc3ccnc(Cl)c3C#N)ccc21 [Example 10a, 2-chloro-4-((4-((2-(5-cyclopropylpyrimidin-2-yl)propan-2-yl)amino)-1-methyl-2-oxo-1,2-dihydroquinolin-6-yl)amino)nicotinonitrile]	513	7.53	–	–	–
Cc1cnc(C(C)Nc2cc(=O)n(C)c3ccc(Nc4ccnc(Cl)c4C#N)cc23)nc1 (centres unmarked) [Example 10f]	–	7.12	–	–	1070
CC(Nc1nc(=O)n(C)c2ccc(Nc3ccnc(Cl)c3C#N)cc12)c1ncccn1 (centres unmarked) [Example 10h]	8910	7.10	–	–	–
CNC(=O)c1cc(Nc2ccc3c(c2)c(N[C@H](C)C2CC2)cc(=O)n3C)c(C#N)c(Cl)n1 [Example 10i, (R)-6-chloro-5-cyano-4-((4-((1-cyclopropylethyl)amino)-1-methyl-2-oxo-1,2-dihydroquinolin-6-yl)amino)-N-methylpicolinamide]	1780	6.96	–	–	–
CC(Nc1cc(=O)n(C)c2ccc(Nc3ccnc(Cl)c3C#N)cc12)c1ncc(Br)cn1 (centres unmarked) [Example 10j, 4-((4-((1-(5-bromopyrimidin-2-yl)ethyl)amino)-1-methyl-2-oxo-1,2-dihydroquinolin-6-yl)amino)-2-chloronicotinonitrile]	1230	6.92	–	–	–
CC(Nc1cc(=O)n(C)c2ccc(Nc3ccnc(Cl)c3C#N)cc12)c1ncc(N2C[C@H](C)C[C@H](C)C2)cn1 (stereo partly drawn) [Example 10k, 2-chloro-4-((4-((1-(5-((3R,5S)-3,5-dimethylpiperidin-1-yl)pyrimidin-2-yl)ethyl)amino)-1-methyl-2-oxo-1,2-dihydroquinolin-6-yl)amino)nicotinonitrile]	1510	6.82	–	–	–
C[C@@H](Nc1nc(=O)n(C)c2ccc(Nc3ccnc(Cl)c3C#N)cc12)C1CC1 [Example 10m, (R)-2-chloro-4-((4-((1-cyclopropylethyl)amino)-1-methyl-2-oxo-1,2-dihydroquinazolin-6-yl)amino)nicotinonitrile]	2750	6.66	–	–	–
C[C@@H](Nc1cc(=O)n(C)c2ccc(Nc3ccnc(Cl)c3C#N)cc12)C1CC1 [Example 10n, (R)-2-chloro-4-((4-((1-cyclopropylethyl)amino)-1-methyl-2-oxo-1,2-dihydroquinolin-6-yl)amino)nicotinonitrile]	1290	6.55	–	–	–
CC(C)(Nc1cc(=O)n(CC2CCCCC2)c2ccc(Nc3ccnc(Cl)c3C#N)cc12)c1ncccn1 [Example 10o, 2-chloro-4-((1-(cyclohexylmethyl)-2-oxo-4-((2-(pyrimidin-2-yl)propan-2-yl)amino)-1,2-dihydroquinolin-6-yl)amino)nicotinonitrile]	2290	6.50	–	–	–
Cn1c(=O)cc(NC(c2ncccn2)C2CC2)c2cc(Nc3ccnc(Cl)c3C#N)ccc21 (centres unmarked) [Example 10p, 2-chloro-4-((4-((cyclopropyl(pyrimidin-2-yl)methyl)amino)-1-methyl-2-oxo-1,2-dihydroquinolin-6-yl)amino)nicotinonitrile]	2340	6.44	–	–	–
CCOC(=O)c1cc(Nc2ccc3c(c2)c(NC(C)c2ncccn2)cc(=O)n3C)n2nccc2n1 (centres unmarked) [Example 10q, ethyl 7-((1-methyl-2-oxo-4-((1-(pyrimidin-2-yl)ethyl)amino)-1,2-dihydroquinolin-6-yl)amino)pyrazolo[1,5-a]pyrimidine-5-carboxylate]	2690	6.44	–	–	–
Cn1c(=O)cc(NC2(c3ncccn3)CC2)c2cc(Nc3ccnc(Cl)c3C#N)ccc21 [Example 10u, 2-chloro-4-((1-methyl-2-oxo-4-((1-(pyrimidin-2-yl)cyclopropyl)amino)-1,2-dihydroquinolin-6-yl)amino)nicotinonitrile]	8710	6.19	–	–	–
CC(Nc1cc(=O)n(C)c2ccc(Nc3ccnc(Cl)c3C#N)cc12)c1ncc(N2CCOCC2)cn1 (centres unmarked) [Example 10x, 2-chloro-4-((1-methyl-4-((1-(5-morpholinopyrimidin-2-yl)ethyl)amino)-2-oxo-1,2-dihydroquinolin-6-yl)amino)nicotinonitrile]	1260	7.56	–	–	–
Cn1c(=O)cc(N[C@H](CO)C2CC2)c2cc(Nc3ccnc(Cl)c3C#N)ccc21 [Example 11a, (S)-2-chloro-4-((4-((1-cyclopropyl-2-hydroxyethyl)amino)-1-methyl-2-oxo-1,2-dihydroquinolin-6-yl)amino)nicotinonitrile]	3390	6.78	–	–	–
Cn1c(=O)cc(NC(C)(C)c2ccccn2)c2cc(Nc3ccnc(Cl)c3C#N)ccc21 [Example 11b, 2-chloro-4-((1-methyl-2-oxo-4-((2-(pyridin-2-yl)propan-2-yl)amino)-1,2-dihydroquinolin-6-yl)amino)nicotinonitrile:formic acid (1:1)]	1290	6.52	–	–	–
CC(Nc1cc(=O)n(C)c2ccc(Nc3ccnc(Cl)c3C#N)cc12)c1ccccn1 (centres unmarked) [Example 11d, 2-chloro-4-((1-methyl-2-oxo-4-((1-(pyridin-2-yl)ethyl)amino)-1,2-dihydroquinolin-6-yl)amino)nicotinonitrile: formic acid (1:1)]	4370	6.34	–	–	–
